# Measured values taken from US7879876B2, “Sulfonamide derivatives and use thereof for the modulation of metalloproteinases” (Merck Serono SA, priority 2005, dated 2011).
# Structures can show the parent of a compound that is named as a salt.
# Legend:
# Assay type in all cases: biochemical
# [1] = target: MMP-14 (Homo sapiens, UniProt P50281); experiment: MMP-14 enzyme inhibition assay (coumarin-labelled peptide substrate); conditions: read-out: percentage inhibition MMP14
# Protocol: (§1) Compounds of the invention were tested to assess their activities as inhibitors of MMP-1, MMP-2, MMP-9, MMP-14, MMP-12 and TACE. MMP-9 Assay Protocol
# (§2) Compounds of the invention were tested for inhibitory activity against 92 kDa gelatinase (MMP-9) in an assay using a coumarin-labeled peptide substrate, (7-methoxycoumarin-4-yl)acetyl-Pro-Leu-Gly-Leu-(3-[2,4-dinitrophenyl]-L-2,3diaminopropionyl)-Ala-Arg-NH2 (McaPLGLDpaAR) (Knight et al, FEBS Lett. 1992; 263-266).
# (§3) Stock solutions were made up as follows: Assay Butter: 100 mM Tris-HCl pH 7.6 containing 100 mM NaCl, 10 mM CaCl2, and 0.05% Brij 35.
# (§4) Substrate: 0.4 mM McaPLGLDpaAR (from Bachem) (0.437 mg/ml) stock solution in 100% DMSO (stored at −20° C.). Dilute to 8 μM in assay butter.
# (§5) Enzyme: Recombinant human 92 kDa gelatinase (MMP-9; APMA (4-aminophenyl mercuric acetate)-activated if necessary) appropriately diluted in assay butter.
# (§6) Test Compounds were prepared initially as 10 mM compound solution in 100% DMSO, diluted to 1 mM in 100% DMSO, then serially diluted 3-fold in 100% DMSO across columns 1-10 of a 96-well microtitre plate Assay concentration range, 100 μM (column 1) to 5.1 nM (column 10).
# (§7) The assay was performed in a total volume of 100 μL per well in 96-well microtitre plates. Activated enzyme (20 μL) was added to the wells followed by 20 μL of assay butter. Appropriate concentrations of test compounds dissolved in 10 μL of DMSO were then added followed by 50 μL of McaPLGLDpaAR (8 μM, prepared by dilution of DMSO stock in assay butter). For each as say ten concentrations of test compound were examined in duplicate. Control wells lack either enzyme or test compound. The reactions were incubated at 37° C. for 2 hours. The fluorescence at 405 nm was measured immediately with an SLT Fluostar fluorometer (SL T Labinstruments GmbH, Grödig, Austria) using 320 nm excitation, without stopping the reaction.
# (§8) The effect of the test compound was determined from the dose response curve generated by the 10 duplicate concentrations of inhibitor. The IC50 (the concentration of compound required to give a 50% decrease in enzyme activity) was obtained by fitting data to the equation, Y=a+((b−a)/(1+(c/X)^d)). (Y=inhibition achieved for a particular dose; X=the dose in nM; a=minimum y or zero % inhibition; b=maximum y or 100% inhibition; c=is the IC50; d=is the slope). The result was rounded to one significant figure.
# (§9) Compounds of the invention were tested for inhibitory activity against MMP-14 in an assay using a coumarin-labelled peptide substrate, (7-methoxycoumarin-4-yl)acetyl-Pro-Leu-Gly-Leu-(3-[2,4-dinitrophenyl]-L-2,3diaminopropionyl)-Ala-Arg-NH2 (Mca PLGLD paAR) (Knight et al, 1992, above). The protocol for this assay was as described for the MMP-9 assay above.
# [2] = target: T1, gelatinase A (MMP-2) (Homo sapiens, UniProt P08253); experiment: MMP-2 enzyme inhibition assay (coumarin-labelled peptide substrate); conditions: read-out: IC50 MMP2
# T1 sequence (P08253 110-660): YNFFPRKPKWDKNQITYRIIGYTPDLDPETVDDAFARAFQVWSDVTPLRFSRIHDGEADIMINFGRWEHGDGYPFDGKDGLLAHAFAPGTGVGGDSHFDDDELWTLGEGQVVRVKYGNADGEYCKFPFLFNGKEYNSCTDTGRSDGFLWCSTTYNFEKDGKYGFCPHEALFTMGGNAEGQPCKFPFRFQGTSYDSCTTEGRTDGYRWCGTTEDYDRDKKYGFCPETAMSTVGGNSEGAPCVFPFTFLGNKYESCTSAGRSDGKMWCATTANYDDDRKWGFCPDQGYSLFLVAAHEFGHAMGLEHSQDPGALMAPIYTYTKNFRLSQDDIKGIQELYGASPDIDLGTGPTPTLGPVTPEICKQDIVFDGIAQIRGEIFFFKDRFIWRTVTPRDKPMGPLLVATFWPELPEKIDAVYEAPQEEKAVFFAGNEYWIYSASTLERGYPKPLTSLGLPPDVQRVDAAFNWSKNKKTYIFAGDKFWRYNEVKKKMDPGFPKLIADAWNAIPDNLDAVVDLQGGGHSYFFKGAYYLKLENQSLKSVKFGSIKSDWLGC
# Protocol: Compounds of the invention were tested to assess their activities as inhibitors of MMP-1, MMP-2, MMP-9, MMP-14, MMP-12 and TACE. MMP-9 Assay Protocol […]
# as §3
# Substrate: 0.4 mM McaPLGLDpaAR (from Bachem) (0.437 mg/ml) stock solution in 100% DMSO (stored at −20° C.). Dilute to 8 μM in assay butter. […]
# as §6, §7, §8
# as §9, with “gelatinase A (MMP-2)” for “MMP-14”, “PLGLDpaAR)” for “PLGLD paAR)”
# [3] = target: metalloelastase (MMP-12) (Homo sapiens, UniProt P39900); experiment: MMP-12 enzyme inhibition assay (coumarin-labelled peptide substrate); conditions: read-out: IC50 MMP12
# metalloelastase (MMP-12), sequence (P39900 106-470): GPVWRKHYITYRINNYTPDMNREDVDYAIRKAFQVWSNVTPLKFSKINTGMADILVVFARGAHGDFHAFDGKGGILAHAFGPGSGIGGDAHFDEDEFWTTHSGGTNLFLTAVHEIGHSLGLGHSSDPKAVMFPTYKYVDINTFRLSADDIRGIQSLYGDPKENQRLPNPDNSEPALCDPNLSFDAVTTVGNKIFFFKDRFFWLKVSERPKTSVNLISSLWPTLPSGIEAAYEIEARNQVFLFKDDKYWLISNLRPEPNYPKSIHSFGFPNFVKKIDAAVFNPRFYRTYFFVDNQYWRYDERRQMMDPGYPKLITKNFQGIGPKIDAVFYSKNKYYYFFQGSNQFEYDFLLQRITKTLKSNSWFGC
# Protocol: as §1, §2, §3, §4, §5, §6, §7, §8
# Compounds of the invention were tested for inhibitory activity against metalloelastase (MMP-12) in an assay using a coumarin-labelled peptide substrate, (7-methoxycoumarin-4-yl)acetyl-Pro-Leu-Gly-Leu-(3-[2,4-dinitrophenyl]-L-2,3-diaminopropionyl)-Ala-Arg-NH2 (McaPLGLDpaAR) (Knight et al, 1992, above). The protocol for this assay was as described for the MMP-9 assay above.
# [4] = target: MMP13 (Homo sapiens, UniProt P45452); experiment: MMP13 inhibition (Table 1); conditions: read-out: percentage inhibition MMP13
# [5] = target: T2, collagenase (MMP-1) (Homo sapiens, UniProt P03956); experiment: MMP-1 enzyme inhibition assay (coumarin-labelled peptide substrate); conditions: @ 5 μM; read-out: percentage inhibition MMP1
# T2 sequence (P03956 100-469): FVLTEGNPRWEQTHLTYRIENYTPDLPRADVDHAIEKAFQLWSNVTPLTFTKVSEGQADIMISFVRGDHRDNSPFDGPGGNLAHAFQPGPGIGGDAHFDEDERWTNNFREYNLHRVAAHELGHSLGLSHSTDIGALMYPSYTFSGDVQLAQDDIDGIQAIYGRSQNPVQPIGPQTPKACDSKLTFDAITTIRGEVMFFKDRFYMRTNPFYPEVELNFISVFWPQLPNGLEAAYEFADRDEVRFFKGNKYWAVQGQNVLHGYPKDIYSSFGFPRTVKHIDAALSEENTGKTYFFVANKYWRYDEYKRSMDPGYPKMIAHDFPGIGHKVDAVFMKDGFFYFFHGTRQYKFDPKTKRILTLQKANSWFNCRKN
# Protocol: as §1, §2, §3, §4, §5, §6, §7, §8
# as §9, with “collagenase (MMP-1)” for “MMP-14”, “PLGLDpaAR)” for “PLGLD paAR)”
# [6] = target: 92 kDa gelatinase (MMP-9) (Homo sapiens, UniProt P14780); experiment: MMP-9 enzyme inhibition assay (coumarin-labeled peptide substrate); conditions: read-out: IC50 MMP9
# 92 kDa gelatinase (MMP-9), sequence (P14780 107-707 limits assumed): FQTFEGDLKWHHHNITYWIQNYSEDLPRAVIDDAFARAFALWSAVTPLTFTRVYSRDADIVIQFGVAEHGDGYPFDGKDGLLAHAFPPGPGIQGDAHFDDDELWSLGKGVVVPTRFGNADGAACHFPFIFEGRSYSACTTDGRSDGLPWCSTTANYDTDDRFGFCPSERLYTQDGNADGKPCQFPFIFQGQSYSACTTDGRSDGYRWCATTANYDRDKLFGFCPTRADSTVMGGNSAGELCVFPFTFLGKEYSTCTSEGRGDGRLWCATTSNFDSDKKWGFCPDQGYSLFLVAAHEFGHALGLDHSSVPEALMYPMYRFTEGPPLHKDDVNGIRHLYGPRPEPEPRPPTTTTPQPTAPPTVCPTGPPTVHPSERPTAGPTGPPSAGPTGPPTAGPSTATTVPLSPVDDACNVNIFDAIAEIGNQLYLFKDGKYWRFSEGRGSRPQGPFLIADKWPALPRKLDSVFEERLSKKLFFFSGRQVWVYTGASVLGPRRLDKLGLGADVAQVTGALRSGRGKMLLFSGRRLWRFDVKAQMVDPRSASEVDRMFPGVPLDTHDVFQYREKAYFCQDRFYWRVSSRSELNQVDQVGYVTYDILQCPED
# Protocol: as §1, §2, §3, §4, §5, §6, §7, §8
Compound,inhibition at 0.1 µM ([1]; @ 0.1 μM) [%],IC50 [2] [nM],IC50 [3] [nM],inhibition at 0.1 µM [4] [%],inhibition at 5 µM ([4]; @ 5 μM) [%],inhibition at 5 µM [1] [%],inhibition at 5 µM [5] [%],IC50 [6] [nM]
"O=CN(O)C(CS(=O)(=O)N1CCc2ccccc2C1)c1ccsc1 (centres unmarked) [Example 7, N-[2-(3,4-dihydroisoquinolin-2(1H)-ylsulfonyl)-1-(3-thienyl)ethyl]-N-hydroxyformamide]",–,784,18,–,–,71,31,> 5000
"O=CN(O)C(CS(=O)(=O)N1CCc2ccccc2C1)c1cccnc1 (centres unmarked) [Example 11, N-[2-(3,4-dihydroisoquinolin-2(1H)-ylsulfonyl)-1-pyridin-3-ylethyl]-N-hydroxyformamide, hydrochloride salt]",–,–,26,15,–,–,–,> 5000
"COc1cc2c(cc1OC)CN(S(=O)(=O)CC(C1CCCC1)N(O)C=O)CC2 (centres unmarked) [Example 15, N-{1-cyclopentyl-2-[(6,7-dimethoxy-3,4-dihydroisoquinolin-2(1H)-yl)sulfonyl]ethyl}-N-hydroxyformamide]",–,> 5000,185,–,–,0,0,> 5000
"CCC(CC)C(CS(=O)(=O)N1CCc2cc(OC)c(OC)cc2C1)N(O)C=O (centres unmarked) [Example 17, N-(1-{[(6,7-dimethoxy-3,4-dihydroisoquinolin-2(1H)-yl)sulfonyl]methyl}-2-ethylbutyl)-N-hydroxyformamide]",–,> 5000,103,–,–,0,0,> 5000
"CC(C)CC(CS(=O)(=O)N1CCc2ccc(OC(C)C)cc2C1)N(O)C=O (centres unmarked) [Example 51, N-hydroxy-N-(1-{[(7-isopropoxy-3,4-dihydroisoquinolin-2(1H)-yl)sulfonyl]methyl}-3-methylbutyl)formamide]",–,1330,109,–,–,–,–,–
"CCOC(=O)C1CC1C(CS(=O)(=O)N1CCc2cc(OC)c(OC)cc2C1)N(O)C=O (centres unmarked) [Example 67, ethyl 2-[2-[(6,7-dimethoxy-3,4-dihydroisoquinolin-2(1H)-yl)sulfonyl]-1-[formyl(hydroxy)amino]ethyl]cyclopropanecarboxylate]",–,> 5000,111,–,–,–,–,–
"COc1cc2c(cc1OC)CN(S(=O)(=O)CC(C1CC1C(=O)O)N(O)C=O)CC2 (centres unmarked) [Example 71, 2-[2-[(6,7-dimethoxy-3,4-dihydroisoquinolin-2(1H)-yl)-sulfonyl]-1-[formyl(hydroxy)amino]ethyl]cyclopropanecarboxylic acid]",–,> 5000,585,–,–,–,–,–

# Now from value to compound:
inhibition at 0.1 µM ([1]; @ 0.1 μM) [%],IC50 [2] [nM],IC50 [3] [nM],inhibition at 0.1 µM [4] [%],inhibition at 5 µM ([4]; @ 5 μM) [%],inhibition at 5 µM [1] [%],inhibition at 5 µM [5] [%],IC50 [6] [nM],Compound
19,≥ 5000,460,–,–,–,–,–,"CC(C)(C)OC(=O)N1CCC[C@@H]1[C@H](CS(=O)(=O)N1CCc2cc(Cl)c(Cl)cc2C1)N(O)C=O (racemic) [Example 46, tert-butyl (2RS)-2-{(1RS)-2-[(6,7-dichloro-3,4-dihydro-isoquinolin-2(1H)-yl)sulfonyl]-1-[formyl(hydroxy)amino]ethyl}pyrrolidine-1-carboxylate]"
–,759,16,16,97,70,32,> 5000,"O=CN(O)C(CS(=O)(=O)N1CCc2ccccc2C1)c1cccs1 (centres unmarked) [Example 5, N-[2-(3,4-dihydroisoquinolin-2(1H)-ylsulfonyl)-1-(2-thienyl)ethyl]-N-hydroxyformamide]"
–,> 5000,280,–,–,0,0,> 5000,"COc1cc2c(cc1OC)CN(S(=O)(=O)CC(N(O)C=O)C(C)(C)C)CC2 (centres unmarked) [Example 20, N-(1-{[(6,7-dimethoxy-3,4-dihydroisoquinolin-2(1H)-yl)sulfonyl]methyl}-2,2-dimethylpropyl)-N-hydroxyformamide]"
–,> 5000,234,–,–,–,–,–,"CSCCC(CS(=O)(=O)N1CCc2ccc(C(C)(C)C)cc2C1)N(O)C=O (centres unmarked) [Example 54, N-[1-{[(7-tert-butyl-3,4-dihydroisoquinolin-2(1H)-yl)-sulfonyl]methyl}-3-(methylthio)propyl]-N-hydroxyformamide]"
–,> 5000,209,–,–,–,–,–,"CC(C)(C)c1ccc2c(c1)CN(S(=O)(=O)CC(C1CCOCC1)N(O)C=O)CC2 (centres unmarked) [Example 66, N-[2-[(7-tert-butyl-3,4-dihydroisoquinolin-2(1H)-yl)sulfonyl]-1-(tetrahydro-2H-pyran-4-yl)ethyl]-N-hydroxyformamide]"
–,> 5000,322,–,–,–,–,–,"CC(C)Oc1ccc2c(c1)CN(S(=O)(=O)CC(C1CCCC1)N(O)C=O)CC2 (centres unmarked) [Example 78, N-{1-cyclopentyl-2-[(7-isopropoxy-3,4-dihydroisoquinolin-2(1H)-yl)sulfonyl]ethyl}-N-hydroxyformamide]"
–,> 5000,366,–,–,–,–,–,"COc1cc2c(cc1OC)CN(S(=O)(=O)CC(C1CC1)N(O)C=O)CC2 (centres unmarked) [Example 84, N-{1-cyclopropyl-2-[(6,7-dimethoxy-3,4-dihydro-isoquinolin-2(1H)-yl)sulfonyl]ethyl}-N-hydroxyformamide]"
